Test system: chronic obstructive pulmonary disease-model animal
Test: Drug efficacy evaluation in the chronic obstructive pulmonary disease-model animal (change of respiratory function)
[1] = 10 mg/kg orally 1 hour before cigarette solution and LPS solution, guinea-pig, average values of 6 animals

Cn1c(=O)c2[nH]cnc2n(C)c1=O [Theophylline, theophylline]
Peak expiratory flow [1]: 19.0 mL/s | Respiratory minute rate [1]: 124 breaths/min | Respiratory minute volume [1]: 457 mL/min | Tidal volume [1]: 3.7 mL | Effect on respiration function (in words) (10 mg/kg orally, COPD-model guinea-pig): improvement effect of respiration function
